pIC50: −log10 of the molar value. Where a name gives a salt, the structure may show the parent alone.
Molecular target: T1, Human CARM1 (PRMT4) (Homo sapiens, UniProt Q86X55)
T1 construct: Flag-CARM1-His; made in house; host or cells: HEK 293F cells (BacMam baculovirus, pFastBacMam)
T1 sequence (Q86X55 2-585 isoform Q86X55-1): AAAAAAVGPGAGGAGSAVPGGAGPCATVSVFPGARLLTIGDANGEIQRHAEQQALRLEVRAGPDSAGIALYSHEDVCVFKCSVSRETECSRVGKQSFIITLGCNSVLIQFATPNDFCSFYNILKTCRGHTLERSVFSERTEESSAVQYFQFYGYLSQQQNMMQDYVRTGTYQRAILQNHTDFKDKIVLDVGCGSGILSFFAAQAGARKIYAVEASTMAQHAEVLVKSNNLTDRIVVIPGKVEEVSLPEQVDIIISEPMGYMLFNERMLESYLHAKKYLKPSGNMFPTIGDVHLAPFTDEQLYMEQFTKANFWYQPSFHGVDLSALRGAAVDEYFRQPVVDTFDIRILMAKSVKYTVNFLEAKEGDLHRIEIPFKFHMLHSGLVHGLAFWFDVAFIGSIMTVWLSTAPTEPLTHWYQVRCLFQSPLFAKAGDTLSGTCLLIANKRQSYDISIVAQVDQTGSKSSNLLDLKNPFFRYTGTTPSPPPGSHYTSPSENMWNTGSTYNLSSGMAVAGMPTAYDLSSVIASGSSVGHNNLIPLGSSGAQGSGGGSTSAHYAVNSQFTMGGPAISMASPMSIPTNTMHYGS
Assay: CARM1 biochemical assay (3H-SAM Flashplate, peptide substrate)
Conditions: read-out: CARM1_ IC50
Outline: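 FLAG/His-tagged human CARM1 (isoform 1, Δ539-561, baculovirus-expressed), 0.25 nM, preincubated 30 min at room temperature with compound (2% DMSO) in 20 mM Bicine pH 7.6, then reacted with 30 nM 3H-SAM and 250 nM biotinylated H3 16-30 peptide (R26 monomethyl). Stopped with 300 uM cold SAM; labelled peptide captured on streptavidin Flashplate; % inhibition versus DMSO and 1 mM SAH controls fitted to a 4- or 3-parameter curve.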

Row | SMILES | pIC50
1 | CC(C)n1ncc2c(C(=O)N(C)[C@@H](C)c3ccccc3)cc(-c3cccc(CN(C)CCN)c3)cc21 [Compound 3] | 7.34
2 | CNCCN(C)Cc1cccc(-c2cnc3c(c2)c(C2CC2)nn3CC2CCOCC2)c1 [Compound 4] | 5.85
3 | CN(CCN)Cc1cccc(-c2nc(NCc3cn4ccsc4n3)c3cnn(C4CC4)c3n2)c1 [Compound 5] | 8.49
4 | CNCCN(C)Cc1cccc(-c2nc(NCc3cn4ccsc4n3)c3cnn(C4CC4)c3n2)c1 [Compound 6] | 7.62
5 | Cc1c(C(=O)NCc2ccccc2)cc(-c2ccc(CN(C)CCN)cc2)c2cn[nH]c12 [Compound 7] | 5.17
6 | COc1cccc(Cn2cnc3ccc(-c4ccc(CN(C)CCN)cc4)cc32)c1 [Compound 8] | 5.41
7 | CNCCN(C)Cc1cccc(-c2nc(NCc3ccccn3)c3cnn(C4CC4)c3n2)c1 [Compound 9] | 8.12
8 | CCC(O)c1cc(-c2cccc(CN(C)CCNC)c2)nc2c1cnn2C(C)C (stereo not shown) [Compound 48] | 6.81
9 | CNCCN(C)Cc1cccc(-c2cc(-c3cnn(C)c3)c3cnn(C(C)C)c3n2)c1 [Compound 49, N1-(3-(1-isopropyl-4-(1-methyl-1H-pyrazol-4-yl)-1H-pyrazolo[3,4-b]pyridin-6-yl)benzyl)-N1,N2-dimethylethane-1,2-diamine] | 7.91
10 | CNCCN(C)Cc1cccc(-c2cc(N3CCC(C(F)(F)F)CC3)c3cnn(C(C)C)c3n2)c1 [Compound 50] | 7.56
11 | CNCCN(C)Cc1cccc(-c2cc(N3CCC(OC)CC3)c3cnn(C(C)C)c3n2)c1 [Compound 51] | 7.78
12 | Cc1c(CNc2nc(-c3cccc(CN(C)CCN)c3)nc3c2cnn3C2CC2)cnn1C [Compound 52] | 8.39
13 | CCOc1cc(-c2cccc(CN(C)CCNC)c2)nc2c1cnn2C(C)C [Compound 53] | 7.70
14 | CC(C)n1ncc2c(C(=O)NCc3ccccc3Cl)cc(-c3cccc(CN(C)CCN)c3)nc21 [Compound 54] | 7.58
15 | CNCCN(C)Cc1cccc(-c2cc(N3CCCC(C#N)C3)c3cnn(C(C)C)c3n2)c1 (stereo not shown) [Compound 55] | 7.45
16 | CNCCN(C)Cc1cccc(-c2cc(C(=O)N3CCCCC3)c3cnn(C(C)C)c3n2)c1 [Compound 56] | 6.66
17 | CNCCN(C)Cc1cccc(-c2nc(NCc3cnn(C)c3C)c3cnn(C4CC4)c3n2)c1 [Compound 57] | 7.73
18 | CNCCN(C)Cc1cccc(-c2cc(NC3COC3)c3cnn(C(C)C)c3n2)c1 [Compound 58] | 7.65
19 | CC(C)n1cc2c(Cl)cc(-c3cccc(CN(C)CCN)c3)nc2n1 [Compound 59] | 6.15
20 | CNCCN(C)Cc1cccc(-c2cc(C(=O)NCCCC(=O)NCC3CCOCC3)c3cnn(C(C)C)c3n2)c1 [Compound 60] | 7.76
21 | CC(C)n1ncc2c(N3CCOCC3)cc(-c3cccc(CN(C)CCN)c3)nc21 [Compound 61, N1-(3-(1-isopropyl-4-morpholino-1H-pyrazolo[3,4-b]pyridin-6-yl)benzyl)-N1-methylethane-1,2-diamine] | 8.28
22 | CNCCN(C)Cc1cccc(-c2cc(N3CCOCC3)n3ncc(C(C)C)c3n2)c1 [Compound 62, N1-(3-(3-isopropyl-7-morpholinopyrazolo[1,5-a]pyrimidin-5-yl)benzyl)-N1,N2-dimethylethane-1,2-diamine formate] | 7.68
23 | CNCCN(C)Cc1cccc(-c2nc(NCc3cccnc3)c3cnn(C4CC4)c3n2)c1 [Compound 63] | 7.77

Row | SMILES | pIC50
24 | CNCCN(C)Cc1cccc(-c2cc(C(=O)NCCC(=O)NCC3CCOCC3)c3cnn(C(C)C)c3n2)c1 [Compound 64] | 7.60
25 | CC(C)n1ncc2c(C(=O)NCc3ccccc3F)cc(-c3cccc(CN(C)CCN)c3)nc21 [Compound 65] | 8.08
26 | CN(CCN)Cc1cccc(-c2nc(NCc3ccncc3)c3cnn(C4CC4)c3n2)c1 [Compound 66] | 8.20
27 | CNCCN(C)Cc1cccc(-c2cc(-c3ccoc3)c3cnn(C(C)C)c3n2)c1 [Compound 67] | 7.55
28 | CNCCN(C)Cc1cccc(-c2cc(N3CCOCC3)c3cnn(C(C)C)c3n2)c1 [Compound 68] | 8.01
29 | CNCCN(C)Cc1cccc(-c2nc(NCc3ccncc3)c3cnn(C4CC4)c3n2)c1 [Compound 69] | 7.71
30 | NCCNCc1ccc(-c2ccc3ncn(CC4CCNCC4)c3c2)cc1 [Compound 70] | 4.93
31 | COC(=O)Nc1cc(-c2cccc(CN(C)CCN)c2)nc2c1cnn2C(C)C [Compound 71] | 7.97
32 | CCNc1cc(-c2cccc(CN(C)CCNC)c2)nc2c1cnn2C(C)C [Compound 72] | 6.96
33 | CNCCN(C)Cc1cccc(-c2ccc3cnn(C(C)C)c3n2)c1 [Compound 73] | 6.42
34 | CNCCN(C)Cc1cccc(-c2cc(C#N)c3cnn(C(C)C)c3n2)c1 [Compound 74] | 7.42
35 | CNCCN(C)Cc1cccc(-c2ccc3nc[nH]c3c2)c1 [Compound 75] | 5.00
36 | CNCCN(C)Cc1cccc(-c2cc(NC3CCOCC3)c3cnn(C(C)C)c3n2)c1 [Compound 76] | 7.88
37 | CCOC(=O)c1cc(-c2cccc(CN(C)CCNC)c2)nc2c1cnn2C(C)C [Compound 78] | 7.75
38 | CNCCN(C)Cc1cccc(-c2cc(N3CCC3)c3cnn(C(C)C)c3n2)c1 [Compound 79] | 7.84
39 | COc1ccccc1Cn1cnc2ccc(-c3ccc(CNCCN)cc3)cc21 [Compound 80] | 5.32
40 | NCCNCc1ccc(-c2ccc3ncn(CC4CCCNC4)c3c2)cc1 (stereo not shown) [Compound 81] | 5.37
41 | Cc1ccccc1Cn1cnc2ccc(-c3ccc(CNCCN)cc3)cc21 [Compound 82] | 5.09
42 | CNCCN(C)Cc1cccc(-c2cc(C(=O)NCCC(=O)NCc3ccn(C)n3)c3cnn(C(C)C)c3n2)c1 [Compound 83] | 7.59
43 | CC(C)n1ncc2c(NC(=O)OCc3ccccc3)cc(-c3cccc(CN(C)CCN)c3)nc21 [Compound 84] | 7.86
44 | CNCCN(C)Cc1cccc(-c2cc(NC(=O)NC(C)C)c3cnn(C(C)C)c3n2)c1 [Compound 85] | 7.85
45 | CC(C)NC(=O)Nc1cc(-c2cccc(CN(C)CCN)c2)nc2c1cnn2C(C)C [Compound 86] | 8.09
46 | CNCCN(C)Cc1cccc(-c2cc(C(=O)NC3CCOCC3)c3cnn(C4CC4)c3n2)c1 [Compound 87] | 7.43

Row | SMILES | pIC50
47 | CNCCN(C)Cc1cccc(-c2cc(C(=O)NCCCC(=O)NCc3ccn(C)n3)c3cnn(C(C)C)c3n2)c1 [Compound 88] | 7.78
48 | CNCCN(C)Cc1cccc(-c2ccc3ncn(C)c3c2)c1 [Compound 92] | 5.19
49 | CNCCN(C)Cc1cccc(-c2cc(N3CCC(C#N)CC3)c3cnn(C(C)C)c3n2)c1 [Compound 93] | 7.98
50 | COc1cccc(CCn2cnc3ccc(-c4ccc(CNCCN)cc4)cc32)c1 [Compound 94] | 5.37
51 | CNCCN(C)Cc1cccc(-c2cc(N(C)C3CC3)c3cnn(C(C)C)c3n2)c1 [Compound 95] | 7.44
52 | CN(CCN)Cc1cccc(-c2nc(NC3CC3)c3cnn(C4CC4)c3n2)c1 [Compound 96] | 8.07
53 | Cc1ccc(Cn2cnc3ccc(-c4ccc(CNCCN)cc4)cc32)cc1 [Compound 97] | 5.09
54 | CNCCN(C)Cc1cccc(-c2cc(C(=O)NCc3ccccn3)c3cnn(C(C)C)c3n2)c1 [Compound 98] | 7.49
55 | CNCCN(C)Cc1cccc(-c2nc(N3CCOCC3)c3cnn(C(C)C)c3n2)c1 [Compound 99] | 7.95
56 | CNCCN(C)Cc1cccc(-c2ccc3cnn(C(C)C)c3c2)c1 [Compound 100] | 5.43
57 | CC(C)n1ncc2c(NC3CCOCC3)cc(-c3cccc(CN(C)CCN)c3)nc21 [Compound 101] | 8.29
58 | CNCCN(C)Cc1cccc(-c2cc(OC3CCOC3)c3cnn(C(C)C)c3n2)c1 (stereo not shown) [Compound 102] | 7.65
59 | CNCCN(C)Cc1cccc(-c2cc(N(C)C)c3cnn(C(C)C)c3n2)c1 [Compound 103] | 7.24
60 | NCCNCc1ccc(-c2ccc3ncn(Cc4ccc(C(=O)N5CCCC5)cc4)c3c2)cc1 [Compound 104] | 5.39
61 | CNCCN(C)Cc1cccc(-c2cc(C(=O)NCC3CCOCC3)c3cnn(C(C)C)c3n2)c1 [Compound 105] | 7.74
62 | Cc1cccc(-n2cnc3ccc(-c4ccc(CNCCN)cc4)cc32)c1 [Compound 106] | 4.83
63 | CC(C)n1ncc2c(NS(=O)(=O)N(C)C)cc(-c3cccc(CN(C)CCN)c3)nc21 [Compound 107] | 7.59
64 | CC(C)n1ncc2c(C(=O)NCC3CCOCC3)cc(-c3cccc(CN(C)CCN)c3)nc21 [Compound 108] | 7.98
65 | CNCCN(C)Cc1cccc(-c2nc(N(C)C3CCOCC3)c3cnn(C4CC4)c3n2)c1 [Compound 109, N1-(3-(1-cyclopropyl-4-(methyl(tetrahydro-2H-pyran-4-yl)amino)-1H-pyrazolo[3,4-d]pyrimidin-6-yl)benzyl)-N1,N2-dimethylethane-1,2-diamine] | 8.30
66 | COc1cccc(-n2cnc3ccc(-c4ccc(CNCCN)cc4)cc32)c1 [Compound 110] | 4.97
67 | CCS(=O)(=O)Nc1cc(-c2cccc(CN(C)CCN)c2)nc2c1cnn2C(C)C [Compound 111] | 6.88
